{"source": "patent US11103605B2", "about": "“PET-imaging immunomodulators” (BRISTOL-MYERS SQUIBB COMPANY, priority 2016, dated 2021)", "key": {"[1]": {"test": "in vivo", "conditions": "mouse, hPD-L1(−) HT-29 xenograft tumor, iv, total radioactivity", "method": "In this experiment, the [^18F]labelled macrocyclic PD-L1 peptide was produced as described in the above Examples, was tested for its ability to discriminate between hPD-L1-positive tumors and hPD-L1-negative tumors in mice.\nMice bearing bilateral xenograft tumors were produced by introducing 2×10^6 hPD-L1(+) L2987 human lung carcinoma cells and 4×10^6 hPD-L1(−) HT-29 human colon carcinoma cells subcutaneously on opposite sides of the mouse. Once tumors reached approximately 300 mm^3 (approximately 2-3 weeks after cell implantation), animals were selected for imaging. The body weight and tumor size of each study were measured and recorded on the imaging day before imaging procedure. Mice were placed in an anesthetic induction chamber and 3% isoflurane inhalant anesthesia was delivered in 100% O2 at a rate of 1-1.5 L/min. […] Mouse respiration was continuously monitored during imaging procedures and isoflurane may be adjusted dependent on depth of anesthesia. […] Time-activity curves were calculated for each ROI to yield a quantitative view of radiotracer within the tumor volume over the course of the 2 hour emission image. […]"}, "[2]": {"test": "PET imaging in non-human primate, baseline and blocking study", "conditions": "male, cynomolgus monkey, iv, total radioactivity", "method": "(§1) Cynomolgus male monkeys with a previously installed vascular access port (VAP) were anesthetized with 0.02 mg/kg atropine, 5 mg/kg Telazol and 0.01 mg/kg buprenorphine I.M. (all drawn into a single syringe). An i.v. catheter is then placed in the cephalic vessel for fluid administration during the imaging procedure to maintain hydration. Animals were intubated with an endotracheal tube—usually 3.0 mm and transferred to the imaging bed of a microPET® F220TM PET instrument (Siemens Preclinical Solutions, Knoxville, Tenn.). Anesthesia was maintained with isoflurane and oxygen and I.V. fluids (LRS) were administered at a rate of 6 ml/kg/hr during the imaging procedure. As the axial field of view of the microPET® F220™ instrument is only 7.6 cm, images over 5 distinct bed positions were acquired to create a composite image of the animals from just above the heart through approximately the pelvis.\n(§2) For each field of view, a 10 minute transmission image was first acquired using a ^57Co point source for the purpose of attenuation correction of the final PET images. Once transmission images were acquired for all bed positions, approximately 1.7 mCi (approximately 0.12 μg/kg) of the [^18F]labelled macrocyclic PD-L1 peptide radiotracer was administered via the installed VAP. 5 minute duration emission scans were then sequentially acquired for each bed position, beginning at position 1 centered approximately at the heart and moving toward the pelvis of the animal. Once images were acquired at each position (1 through 5), the imaging bed was moved back to bed position 1 and the process was repeated. Using this procedure, a total of 5 distinct images were acquired for each bed position over the duration of the imaging study.\n(§3) Individual images were reconstructed using a filtered back projection (FBP) algorithm with attenuation correction using the collected transmission images and corrected for radioisotope decay. Final composite images were then produced by aligning images from all 5 bed positions obtained from a single pass (i.e. a single composite image was produced from each set of sequential images from bed positions 1 through 5) covering the duration of the imaging study. […] To determine the nature of the specific binding in the cynomolgus monkey spleen a blocking study was conducted in the following manner.\n(§4) The cynomolgus monkey (4.4 kg, male) received a single IV injection of [^18F]labelled macrocyclic PD-L1 peptide radiotracer (˜1.7 mCi, mass: 0.21 μg/kg) at baseline. On the following day (post-dose), the same NHP received a single SC dose of 2 mg/kg anti-PD-L1 binding macrocyclic peptide at 2 hours before radiotracer injection (˜1.7 mCi, mass: 0.12 μg/kg)."}, "[3]": {"system": "endogenous PD-L1", "test": "PET imaging in non-human primate, baseline and blocking study", "conditions": "for % Change of tracer SUV, baseline vs blocked: 2 mg/kg PD-L1 binding macrocyclic peptide", "method": "as §1, §2, §3, §4"}, "[4]": {"system": "hPD-L1(+) L2987 human lung carcinoma xenografts", "test": "PET imaging of mice bearing bilateral xenograft tumors: hPD-L1(+) tumor", "type": "in vivo, mouse", "conditions": "for SUV in L2987: individual mice", "experimental": "(§5) Mice bearing bilateral xenograft tumors were produced by introducing 2×10^6 hPD-L1(+) L2987 human lung carcinoma cells and 4×10^6 hPD-L1(−) HT-29 human colon carcinoma cells subcutaneously on opposite sides of the mouse. Once tumors reached approximately 300 mm^3 (approximately 2-3 weeks after cell implantation), animals were selected for imaging. The body weight and tumor size of each study were measured and recorded on the imaging day before imaging procedure. Mice were placed in an anesthetic induction chamber and 3% isoflurane inhalant anesthesia was delivered in 100% O2 at a rate of 1-1.5 L/min. Once sedated, mice were removed from the induction chamber and placed into a plexiglass 4-chamber mouse hotel (custom-made by BMS-Applied Biotechnology group), while continuing to receive 1-1.5% isoflurane inhalant anesthesia and delivered in 100% O2 at a rate of 2 L/min via the nose-cone. Animal were kept warm using an external standalone temperature regulating unit (M2M Imaging Corp) to prevent hypothermia during imaging. Mouse respiration was continuously monitored during imaging procedures and isoflurane may be adjusted dependent on depth of anesthesia. Mice were then placed into a custom animal holder with capacity for 4 animals, where they remained under anesthesia for the duration of the study. The animal holder was transferred to the microPET® F120™ scanner (Siemens Preclinical Solutions, Knoxville, Tenn.). The axial field of view of this instrument is 7.6 cm. With this limitation, animals were positioned such that the scanning region was from immediately in front of the eyes to approximately the base of the tail. A 10-minute transmission image was first acquired using a ^57Co point source for the purpose of attenuation correction of the final PET images. Following the transmission scan, radiotracer solutions were administered via the previously installed tail vein catheters and a 2 hour emission image was acquired. Injected radiotracer solutions were injected into a total 8 mice (body weight: 22.2±2.0 gram) with tumor volumes 203.0±51.4 mm^3 for HT-29 and 422.9±128.4 mm^3 for L2987 were imaged 16-17 days post cell implantation. Each mouse received a single injection of SC dose of PD-L1 binding macrocyclic peptide 60 mg/kg (N=4) or saline (N=4) 30 minute before the [^18F]labelled macrocyclic PD-L1 peptide (124.0±8.4 μCi, tracer mass: 1.0±0.4 μg/kg) IV injection. Images were reconstructed using a maxiumum a posteriori (MAP) algorithm with attenuation correction using the collected transmission images and corrected for radioisotope decay. In the final images, regions of interest (ROIs) were drawn around the tumor boundary using ASIPro software (Siemens Preclinical Solutions). Time-activity curves were calculated for each ROI to yield a quantitative view of radiotracer within the tumor volume over the course of the 2 hour emission image. For final comparison, individual time-activity curves were normalized based on the injected radiotracer dose for each specific animal. Radiotracer uptake was compared across tumors using the final 10 minutes of each time-activity curve (90-100 minutes post-radiotracer injection)."}, "[5]": {"test": "PET imaging of mice bearing bilateral xenograft tumors: hPD-L1(+) tumor", "type": "in vivo, mouse", "conditions": "mouse, hPD-L1(+) L2987 xenograft tumor, iv, total radioactivity, mean of 4 mice", "experimental": "as §5"}}, "note": "Where “and” joins values, the source holds several entries; their conditions need not be identical. Identical values can stand only once."}
{"smiles": "CCCC[C@H]1C(=O)N(C)[C@@H](CCCC)C(=O)N[C@@H](CC(C)C)C(=O)N[C@H](C(=O)NCC(=O)N[C@@H](Cc2cn(CCOCCOCCOCCOc3cccnc3[18F])nn2)C(=O)O)CSCC(=O)N[C@@H](Cc2ccc(O)cc2)C(=O)N(C)[C@@H](C)C(=O)N[C@@H](CC(N)=O)C(=O)N2CCC[C@H]2C(=O)N[C@@H](CN)C(=O)N[C@@H](CC(C)C)C(=O)N2C[C@H](O)C[C@H]2C(=O)N[C@@H](Cc2c[nH]c3ccccc23)C(=O)N[C@@H](CCN)C(=O)N[C@@H](Cc2cn(CC(=O)O)c3ccccc23)C(=O)N1C", "note": "[[^18F]labelled macrocyclic PD-L1 peptide]", "values": [{"measurement": "SUV", "setting": "[1]; 1 ug/kg", "value": 0.037, "unit": "SUV"}, {"measurement": "SUV", "setting": "[1]; 60 mg/kg", "value": 0.071, "unit": "SUV"}, {"measurement": "SUV", "setting": "[2]; duodenum, 0.21 ug/kg", "value": 8.84, "unit": "SUV"}, {"measurement": "SUV", "setting": "[2]; duodenum, 2 mg/kg", "value": 8.76, "unit": "SUV"}, {"measurement": "SUV", "setting": "[2]; gallbladder, 0.21 ug/kg", "value": 2.78, "unit": "SUV"}, {"measurement": "SUV", "setting": "[2]; gallbladder, 2 mg/kg", "value": 1.13, "unit": "SUV"}, {"measurement": "SUV", "setting": "[2]; kidney cortex, 0.21 ug/kg", "value": 8.42, "unit": "SUV"}, {"measurement": "SUV", "setting": "[2]; kidney cortex, 2 mg/kg", "value": 10.8, "unit": "SUV"}, {"measurement": "SUV", "setting": "[2]; kidney pelvis, 0.21 ug/kg", "value": 8.86, "unit": "SUV"}, {"measurement": "SUV", "setting": "[2]; kidney pelvis, 2 mg/kg", "value": 24.1, "unit": "SUV"}, {"measurement": "SUV", "setting": "[2]; liver, 0.21 ug/kg", "value": 9.16, "unit": "SUV"}, {"measurement": "SUV", "setting": "[2]; liver, 2 mg/kg", "value": 3.17, "unit": "SUV"}, {"measurement": "SUV", "setting": "[2]; lung, 0.21 ug/kg", "value": 1.86, "unit": "SUV"}, {"measurement": "SUV", "setting": "[2]; lung, 2 mg/kg", "value": 0.793, "unit": "SUV"}, {"measurement": "SUV", "setting": "[2]; muscle, 0.21 ug/kg", "value": 0.521, "unit": "SUV"}, {"measurement": "SUV", "setting": "[2]; muscle, 2 mg/kg", "value": 0.341, "unit": "SUV"}, {"measurement": "SUV", "setting": "[2]; spleen, 0.21 ug/kg", "value": 19.7, "unit": "SUV"}, {"measurement": "SUV", "setting": "[2]; spleen, 2 mg/kg", "value": 1.42, "unit": "SUV"}, {"measurement": "SUV", "setting": "[2]; thymus, 0.21 ug/kg", "value": 1.99, "unit": "SUV"}, {"measurement": "SUV", "setting": "[2]; thymus, 2 mg/kg", "value": 0.931, "unit": "SUV"}, {"measurement": "tracer uptake blocked in the spleen", "setting": "[3]; 2 mg/kg of a specific PD-L1 binding macrocyclic peptide", "value": 93, "unit": "%"}, {"measurement": "% Change of tracer SUV, baseline vs blocked", "setting": "[3]; Duodenum", "value": "−0.9", "unit": "%"}, {"measurement": "% Change of tracer SUV, baseline vs blocked", "setting": "[3]; Gallbladder", "value": "−59.4", "unit": "%"}, {"measurement": "% Change of tracer SUV, baseline vs blocked", "setting": "[3]; Kidney Cortex", "value": 28.8, "unit": "%"}, {"measurement": "% Change of tracer SUV, baseline vs blocked", "setting": "[3]; Kidney Pelvis", "value": 171.7, "unit": "%"}, {"measurement": "% Change of tracer SUV, baseline vs blocked", "setting": "[3]; Liver", "value": "−65.5", "unit": "%"}, {"measurement": "% Change of tracer SUV, baseline vs blocked", "setting": "[3]; Lung", "value": "−57.3", "unit": "%"}, {"measurement": "% Change of tracer SUV, baseline vs blocked", "setting": "[3]; Muscle", "value": "−34.7", "unit": "%"}, {"measurement": "notable radiotracer accumulation (organs)", "setting": "[3]; PET images", "value": "kidneys, spleen, and bladder"}, {"measurement": "% Change of tracer SUV, baseline vs blocked", "setting": "[3]; Spleen", "value": "−92.8", "unit": "%"}, {"measurement": "% Change of tracer SUV, baseline vs blocked", "setting": "[3]; Thymus", "value": "−53.3", "unit": "%"}, {"measurement": "background accumulation of radiotracer in background tissues such as muscle", "setting": "[3]; visual inspection of PET images", "value": "very low"}, {"measurement": "radiotracer uptake in hPD-L1(+) L2987 xenografts relative to hPD-L1(−) HT-29 xenografts", "setting": "[4]; SC 60 mg/kg PD-L1 binding macrocyclic peptide 30 minutes before radiotracer", "value": 0.7, "unit": "×"}, {"measurement": "radiotracer uptake in hPD-L1(+) L2987 xenografts relative to hPD-L1(−) HT-29 xenografts", "setting": "[4]; animals receiving only the radiotracer", "value": 8.1, "unit": "×"}, {"measurement": "SUV in L2987", "setting": "[4]; 60 mg/kg PD-L1 binding macrocyclic peptide SC 30 min before tracer IV, 60 mg/kg", "value": "0.060 and 0.055 and 0.042 and 0.043"}, {"measurement": "SUV in L2987", "setting": "[4]; saline (0 mg/kg PD-L1 binding macrocyclic peptide) SC 30 min before tracer IV, 90-100 minutes post-radiotracer injection", "value": "0.231 and 0.452 and 0.297 and 0.213"}, {"measurement": "SUV", "setting": "[5]; 1 ug/kg, saline predose", "value": 0.298, "unit": "SUV"}, {"measurement": "SUV", "setting": "[5]; 60 mg/kg PD-L1 binding macrocyclic peptide predose", "value": 0.05, "unit": "SUV"}]}
